The target of assay [1] is T1, Cholecystokinin receptor type A (Rattus norvegicus) (UniProt P30551).
T1 sequence (whole entry): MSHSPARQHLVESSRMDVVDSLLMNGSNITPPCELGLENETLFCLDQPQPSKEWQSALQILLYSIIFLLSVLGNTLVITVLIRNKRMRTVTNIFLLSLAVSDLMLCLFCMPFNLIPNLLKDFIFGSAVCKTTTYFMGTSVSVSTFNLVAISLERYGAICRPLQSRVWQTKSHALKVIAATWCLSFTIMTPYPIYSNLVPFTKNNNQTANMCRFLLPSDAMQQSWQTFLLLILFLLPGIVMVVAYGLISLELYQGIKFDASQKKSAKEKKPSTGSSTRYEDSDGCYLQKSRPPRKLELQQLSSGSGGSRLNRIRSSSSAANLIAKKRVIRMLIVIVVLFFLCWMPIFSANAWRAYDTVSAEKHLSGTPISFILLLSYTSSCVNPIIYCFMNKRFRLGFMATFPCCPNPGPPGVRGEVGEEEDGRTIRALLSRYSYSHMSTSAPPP
Briefly: Displacement of [125I]-CCK8 from CCK1 receptor in rat pancreatic acinar cells 30 uM.

Assay [2] is described as follows: Displacement of [125I]-CCK8 from CCK2 receptor in guinea pig cerebral cortex. In kind it is tissue-based, Cavia porcellus.
For the next assay, the species on record is Cavia porcellus. Briefly: Displacement of [125I]-CCK8 from CCK2 receptor in guinea pig cerebral cortex at 10 uM. In kind it is tissue-based.

Structures are written as SMILES.

With `O=C(CC12CC3CC(CC(C3)C1)C2)Nc1ccccc1C(=O)NC(Cc1ccccc1)C(=O)O` (racemic), in assay [1], the inhibition is 51%. The molecule also yielded an IC50 in assay [2] of 15.4 µM.
Turning to `O=C(Nc1ccccc1C(=O)NC(Cc1ccccc1)C(=O)O)C1=Cc2ccccc2C1` (racemic), in the assay listed under Cavia porcellus, the inhibition is below 20%.

The values above are taken from ChEMBL document CHEMBL1154080, “2D-QSAR and 3D-QSAR/CoMFA analyses of the N-terminal substituted anthranilic acid based CCK(1) receptor antagonists: 'Hic Rhodus, hic saltus'” (Bioorg Med Chem, 2009).
